Source: ChEMBL document CHEMBL5370559, “Plasmodium-Resistant Indole Diterpenoid Biosynthesis Gene Cluster Derived from Aspergillus oryzae Was Activated by Exogenous P450 Gene Ast B” (J Nat Prod, 2023)

Experiments:
Plasmodium falciparum [1] = test: Antiplasmodial activity against erythrocytic stage chloroquine sensitive Plasmodium falciparum 3D7 assessed as parasitic growth inhibition measured after 3 days by HRP2-ELISA assay; format: functional, organism-based; conditions: 3D7, 72 h
Plasmodium falciparum [2] = test: Antiplasmodial activity against erythrocytic stage chloroquine resistant Plasmodium falciparum dD2 assessed as parasitic growth inhibition measured after 3 days by HRP2-ELISA assay; format: functional, organism-based; conditions: dD2, 72 h

With `C=CC(C)(C)c1cccc2[nH]c3c(c12)C[C@@H]1CC(=O)[C@@]2(O)C4=CC(=O)[C@@H](C(C)(C)O)O[C@]4(O)CC[C@]2(C)[C@@]31C` the IC50 (Plasmodium falciparum [1]) was 57000 nM.

For `C=CC(C)(C)c1cccc2[nH]c3c(c12)C[C@@H]1CC[C@@]2(O)C4=CC(=O)[C@@H]5O[C@@]4(CC[C@]2(C)[C@@]31C)OC5(C)C` [AFLATREME], the IC50 (Plasmodium falciparum [1]) was > 200000 nM.

Compound `C[C@@H]1CC[C@H]2[C@@H](C)C(=O)O[C@@H]3O[C@@]4(C)CC[C@@H]1[C@]32OO4` [ARTEMISININ] has an IC50 (Plasmodium falciparum [1]) of 13 nM and an IC50 (Plasmodium falciparum [2]) of 12 µM.

`CC(C)C1=C(c2c[nH]c3ccccc23)[C@@H]2[C@H](C)CC[C@@]3(C)[C@H](C)CC[C@@H](O)[C@@]23CC1` was tested, and the IC50 (Plasmodium falciparum [1]) was 2800 nM and the IC50 (Plasmodium falciparum [2]) was > 200 µM.

In the case of `CC1=CC[C@@H](O)[C@@]23CC=C(C(C)C)[C@H](c4c[nH]c5ccccc45)[C@@H]2[C@H](C)CC[C@@]13C`, the IC50 (Plasmodium falciparum [1]) is reported as 20000 nM.

Work on `Cc1cc2[nH]c3ccccc3c2c2c1CC[C@@]13[C@H](O)CC[C@@H](C)[C@]1(C)[C@H](O)C[C@@H](C)[C@@H]23` yielded an IC50 (Plasmodium falciparum [1]) of 49000 nM.

For `C[C@@H]1CC[C@@]2(C)[C@H](C)CC[C@@H](O)[C@]23CC[C@@H](C(C)(C)O)[C@H](c2c[nH]c4ccccc24)[C@H]13`, the IC50 (Plasmodium falciparum [1]) was > 200000 nM.

Work on `C=CC(C)(C)c1cccc2[nH]c3c(c12)C[C@@H]1CC[C@H]2C4=CC(=O)[C@@H](C(C)(C)O)O[C@H]4CC[C@]2(C)[C@@]31C` yielded an IC50 (Plasmodium falciparum [1]) of 840 nM and an IC50 (Plasmodium falciparum [2]) of 41 µM.

Work on `C=CC(C)(C)c1ccc2[nH]c3c(c2c1)C[C@@H]1CC[C@H]2C4=CC(=O)[C@@H](C(C)(C)O)O[C@H]4CC[C@]2(C)[C@@]31C` yielded an IC50 (Plasmodium falciparum [1]) of 1300 nM and an IC50 (Plasmodium falciparum [2]) of 96 µM.

Compound `CC(C)(O)[C@H]1O[C@@]2(O)CC[C@@]3(C)[C@@H](CC[C@H]4Cc5c([nH]c6ccccc56)[C@@]43C)C2=CC1=O` has an IC50 (Plasmodium falciparum [1]) of 1100 nM and an IC50 (Plasmodium falciparum [2]) of 153 µM.

`CC(C)(O)[C@H]1O[C@H]2CC[C@@]3(C)[C@@H](CC[C@H]4Cc5c([nH]c6ccccc56)[C@@]43C)C2=CC1=O` [DEHYDROXYPAXILLINE] gave an IC50 (Plasmodium falciparum [1]) of 900 nM and an IC50 (Plasmodium falciparum [2]) of 69 µM.

In the case of `CC(C)C1=CC[C@]23[C@@H]([C@H](C)CC[C@@]2(C)[C@H](C)CC[C@H]3O)[C@H]1c1c[nH]c2ccccc12`, the IC50 (Plasmodium falciparum [1]) is reported as 31000 nM.

For `CC(C)(O)[C@@H]1CC[C@]2(C)[C@H](CC[C@@]3(C)[C@H]2CC[C@H]2Cc4c([nH]c5ccccc45)[C@@]23C)O1` [PASPALINE], the IC50 (Plasmodium falciparum [1]) was 2200 nM and the IC50 (Plasmodium falciparum [2]) was > 200 µM.

Compound `C[C@H](CO)C1=C(c2c[nH]c3ccccc23)[C@@H]2[C@H](C)C[C@@H](O)[C@@]3(C)[C@H](C)CC[C@@H](O)[C@@]23CC1` has an IC50 (Plasmodium falciparum [1]) of 26000 nM.

`CC(C)C1=C(c2c[nH]c3ccccc23)[C@@H]2[C@H](C)C[C@@H](O)[C@@]3(C)[C@H](C)CC[C@@H](O)[C@@]23CC1` was tested, and the IC50 (Plasmodium falciparum [1]) was 52000 nM.

With `CC(C)=CCC[C@]1(C)[C@@H](O)CC[C@@]2(C)[C@H]1CC[C@H]1Cc3c([nH]c4ccccc34)[C@@]12C` [EMINDOLE SB] the IC50 (Plasmodium falciparum [1]) was 2900 nM and the IC50 (Plasmodium falciparum [2]) was 34 µM.
